Test results as given in patent US20250082598A1, “Melafenoxate, 2-(1-adamantylamino)ethyl 2-(4-chlorophenoxy)acetate and derivatives thereof for treating circadian rhythm sleep disorders with neurodegenerative diseases such as Alzheimer's disease” (NLS Pharmaceutics AG, priority 2021, published 2025).

Key:
[1] = biological target: T1, MT1 (MLT1a) (h) (Homo sapiens, UniProt P48039); assay: Radioligand binding, MT1 (MLT1a) (h); details: 10^−5 M; agonist radioligand; % inhibition of control specific binding
T1 construct: CEREP (Eurofins, France)
Experimental: Melafenoxate was tested at 10^−5 M, calculated as a % inhibition of control specific binding of a radioactively labeled ligand specific for each target.
This binding profile panel was broadly defined with roughly an equal number of selective, central and peripheral therapeutically relevant targets, including native animal tissues, radioligands and specific enzymes involved in cell cycle regulation in accordance with Eurofins Standard Operating Procedure.
For radioligand binding experiments, the half maximal inhibitory concentration (IC50) and the half maximal effective concentration (EC50) values were determined (via computer software) by nonlinear regression analysis of the competition curves using Hill equation curve fitting. The inhibition constants (Ki) were calculated using the Cheng-Prusoff equation (Ki=IC50/(1+(L/KD)), where L is the concentration of radioligand in the assay, and KD is the affinity of the radioligand for the receptor.^49
The results are expressed as a % control specific binding ([measured specific binding/control specific binding]×100) and as a % inhibition of control specific binding (100−[(measured specific binding/control specific binding)×100]) obtained in the presence of the test compounds. […]

[2] = biological target: RXFP4 (h) (Homo sapiens, UniProt Q8TDU9); assay: RXFP4 assay (Eurofins/LeadHunter, cAMP Hunter GPCR Biosensor); format: cell-based
Experimental: Melafenoxate is found to weakly bind with RXFP3 and RXFP4 receptors (Study FR095-0024749-Q Eurofins/leadHunter Jun. 25, 2021; unpublished data).
In these assays' compounds were tested in agonist and antagonist mode with the GPCR Biosensor Assays and match to this design:
• 1. CAMP Hunter cell lines were expanded from freezer stocks according to standard procedures. • 2. Cells were seeded in a total volume of 20 μL into white walled, 384-well microplates and incubated at 37° C. for the appropriate time prior to testing. • 3. cAMP modulation was determined using the DiscoverX HitHunter CAMP XS+assay.
• 1. For agonist determination, cells were incubated with sample to induce response. • 2. Media was aspirated from cells and replaced with 15 μL 2:1 HBSS/10 mM Hepes: CAMP XS+ Ab reagent. • 3. […]
• 1. […] Microplates were read following signal generation with a PerkinElmer Envision™ instrument for chemiluminescent signal detection.
• 1. Compound activity was analyzed using CBIS data analysis suite (ChemInnovation, CA). • 2. For Gs agonist mode assays, percentage activity is calculated using the following formula:
% Activity=100%×(mean RLU of test sample−mean RLU of vehicle control)/(mean RLU of MAX control−mean RLU of vehicle control). • 3. For Gs positive allosteric mode assays, percentage modulation is calculated using the following formula: http://www.eurofinsdiscoveryservices.com Confidential Jun. […]

Chain of RXFP4 (h) (Q8TDU9 whole entry): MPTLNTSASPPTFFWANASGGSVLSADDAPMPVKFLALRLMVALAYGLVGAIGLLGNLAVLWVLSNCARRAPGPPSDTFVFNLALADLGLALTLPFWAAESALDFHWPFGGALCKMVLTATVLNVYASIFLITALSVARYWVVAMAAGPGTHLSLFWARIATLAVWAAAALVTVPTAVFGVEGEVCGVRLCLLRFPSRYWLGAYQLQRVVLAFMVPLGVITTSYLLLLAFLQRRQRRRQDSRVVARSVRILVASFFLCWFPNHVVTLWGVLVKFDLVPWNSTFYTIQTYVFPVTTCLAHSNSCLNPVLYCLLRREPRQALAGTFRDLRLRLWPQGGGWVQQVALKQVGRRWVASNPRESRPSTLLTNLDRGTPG
T1 sequence (P48039 whole entry): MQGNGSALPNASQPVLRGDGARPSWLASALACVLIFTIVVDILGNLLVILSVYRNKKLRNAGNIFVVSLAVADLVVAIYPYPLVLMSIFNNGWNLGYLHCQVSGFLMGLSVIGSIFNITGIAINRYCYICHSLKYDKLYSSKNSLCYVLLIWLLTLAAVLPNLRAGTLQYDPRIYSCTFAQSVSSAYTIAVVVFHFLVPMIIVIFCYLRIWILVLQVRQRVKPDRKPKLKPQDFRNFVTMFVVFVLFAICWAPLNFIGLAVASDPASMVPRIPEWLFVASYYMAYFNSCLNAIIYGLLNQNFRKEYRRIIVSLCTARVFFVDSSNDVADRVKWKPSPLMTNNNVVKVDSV

In the case of `O=C(COc1ccc(Cl)cc1)OCCNC12CC3CC(CC(C3)C1)C2` [Melafenoxate, 2-(1-adamantylamino)ethyl 2-(4-chlorophenoxy)acetate], the inhibition at 10 µM [1] is reported as 75.2%, the “binding with RXFP4 receptor (in words)” value [2] is reported as “weakly bind” and the “% Inhibition at 5*10^−5 M” value ([2]; 5*10^−5 M) is reported as 19.5%.
